Data as given in patent publication US9901648B2, “Stabilization of biomolecules using sugar polymers” (THE REGENTS OF THE UNIVERSITY OF CALIFORNIA, priority 2012, dated 2018).

Key:
[1] = molecular target: T1, hen egg white lysozyme (Gallus gallus, UniProt P00698); test: Lyophilization stability activity assay (10 lyophilization cycles, EnzChek lysozyme activity); type: biochemical
T1 construct: reconstituting hen egg white lysozyme (0.1 mg/mL, DPBS, pH 7.4) as received without further purification; purchased Sigma-Aldrich; host or cells: hen egg white
T1 sequence (P00698 19-147): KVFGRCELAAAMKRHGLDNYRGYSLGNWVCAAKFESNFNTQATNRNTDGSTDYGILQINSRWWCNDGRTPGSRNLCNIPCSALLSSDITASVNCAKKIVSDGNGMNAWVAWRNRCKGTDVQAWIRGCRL
Experimental: (§1) Lysozyme-glycopolymer conjugate (Lyz-6). To a 1.5 mL Lo-Bind® centrifuge tube was added thiopropionyl hen egg white lysozyme (LyzSH) (70 μL, 10 mg/mL, DPBS, pH 8.0) and 6 (16 mg, 0.71 μmol, 15 eq) and the entire reaction was diluted to a final volume of 500 μL (DPBS, pH 8.0) before storage at 4° C. for 3 hours. The resulting mixture was purified by FPLC (50 mM PB, 150 mM NaCl, pH 7.4), fractions were concentrated by centriprep ultrafiltration (MWCO 3 kDa, DPBS, pH 7.4) and stored at 4° C. Samples were diluted 5 fold before the EnzChek® lysozyme activity assay was employed to measure fraction activity. In a typical assay 50 μL of diluted sample was incubated with 50 μL of Micrococcus luteus labeled with FITC (1 mg/mL) at 37° C. for 1 hour. Subsequently, fluorescence of lysed cell membrane and thus lysozyme activity was measured as FITC fluorescence (abs 480 nm/em 530 nm) and quantified relative to known standards.
Wild-type lysozyme was prepared by reconstituting hen egg white lysozyme (0.1 mg/mL, 1 eq, DPBS, pH 7.4) as received without further purification. Samples were further diluted to 0.021 mg/mL (1 kU/mL) in 20 μL aliquots prior to application of lyophilization or thermal insults.
Wild-type lysozyme samples mixed with glyco-polymer were prepared by adding trehalose polymer (Poly 5-8, 1 or 100 eq relative to lysozyme) to a solution of lysozyme (0.1 mg/mL, DPBS, pH 7.4) before storage at 4° C. Samples were further diluted to a lysozyme concentration of 0.021 mg/mL (1 kU/mL) in 20 μL aliquots prior to application of lyophilization or thermal insult.
Wild-type lysozyme samples mixed with trehalose were prepared by adding trehalose (1 or 100 eq relative to the number of trehalose monomer units in Poly 5-8) to a solution of lysozyme (0.1 mg/mL, DPBS, pH 7.4) before storage at 4° C. […]
(§2) Wild-type lysozyme was prepared by reconstituting hen egg white lysozyme (0.1 mg/mL, DPBS, pH 7.4) as received without further purification. […] Statistics were calculated utilizing the Students t test; % confidence as +/−=t*(standard deviation)/(number of trials)^(½) with p<1−% confidence/100.

[2] = molecular target: glucose oxidase (GOX) (Aspergillus niger, UniProt P13006); test: Glucose oxidase stabilization at 50° C. (Amplex Red assay); type: biochemical; conditions: 50° C. for 30 min; GOX 0.1 mg/mL; 7500 equivalent of trehalose
glucose oxidase (GOX), sequence (P13006 17-605, species assumed): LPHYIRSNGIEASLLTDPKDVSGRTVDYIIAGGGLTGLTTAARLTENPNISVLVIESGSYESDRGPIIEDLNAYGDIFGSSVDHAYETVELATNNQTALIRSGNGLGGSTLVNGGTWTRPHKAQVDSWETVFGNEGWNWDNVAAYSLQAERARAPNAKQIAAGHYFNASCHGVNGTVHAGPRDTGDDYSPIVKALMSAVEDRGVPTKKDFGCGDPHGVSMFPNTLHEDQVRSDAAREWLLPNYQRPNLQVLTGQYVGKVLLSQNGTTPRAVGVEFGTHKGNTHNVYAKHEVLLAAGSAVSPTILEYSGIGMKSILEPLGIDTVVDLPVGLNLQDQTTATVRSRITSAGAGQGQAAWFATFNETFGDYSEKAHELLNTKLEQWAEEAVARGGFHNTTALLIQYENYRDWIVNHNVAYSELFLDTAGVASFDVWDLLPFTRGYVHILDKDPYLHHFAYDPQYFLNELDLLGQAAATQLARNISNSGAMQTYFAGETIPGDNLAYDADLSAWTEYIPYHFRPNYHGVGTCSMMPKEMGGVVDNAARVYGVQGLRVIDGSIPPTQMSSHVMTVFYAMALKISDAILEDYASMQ
Experimental: Trehalose glycopolymers P1 through P4 were also tested for glucose oxidase (GOX) stabilization against 50° C. heat for 30 min. The activity of GOX was evaluated using Amplex® Red Glucose/Glucose Oxidase Assay Kit (Invitrogen). GOX reacts with D-glucose to form H2O2, which can then react with the Amplex® in the presence of horseradish peroxidase (HRP) to generate resorufin and can be detected by fluorescence. GOX samples were prepared without any additive, with 100 equivalent of P1-P4, and 7500 equivalent of trehalose, which is equal to the number of repeating units in the P1. All samples were heated to 50° C. for 30 min and repeated six times. Heated samples were then tested for GOX reactivity and percent original activities were calculated using same concentration of GOX without heating and additive (FIG. 29).
2 μL aliquots of GOX solution were mixed with 2 μL aliquots of each polymer and trehalose solution or buffer only to give the final concentration of 0.1 mg/mL GOX. […] Activity was measured using Amplex® Red Glucose/Glucose Oxidase Assay kit following the product manual procedures.

[3] = molecular target: T1, hen egg white lysozyme; test: Thermo-stability (heat burden) assay, 90° C., EnzChek lysozyme activity; type: biochemical
Experimental: as §1, with “standards. […]” for “standards.”
as §2, with “received and was stored” for “received”, “purification at 4° C. in 20 μL aliquots. […] Activities of stressed samples were measured relative to identical aliquots that were not exposed to heat.” for “purification.”

[4] = molecular target: Recombinant Human Insulin (Homo sapiens, UniProt P01308); test: Insulin stabilization at 90° C. (native gel); conditions: 90° C. for 1 h; insulin 1 mg/mL; 750 equiv of trehalose
Recombinant Human Insulin, sequence (P01308 25-54 limits assumed): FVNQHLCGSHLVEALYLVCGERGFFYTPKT
Recombinant Human Insulin, sequence (P01308 90-110 limits assumed): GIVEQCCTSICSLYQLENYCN
Experimental: Prepared P1, P2, P3, and the same concentration of trehalose as an additive were tested for stabilization of insulin against heating under 90° C. for 1 h. After heating all the samples were loaded on the native gel (FIG. 30). Insulin without any additive was denatured and the band was almost gone in native gel. […] The MALDI-TOF data provides that insulin, originally 5.8 kDa, denatures into mainly two fragments after heating (data not shown). This is due to the breakage of two disulfide bridges liking a and β chain of insulin.
Insulin was dissolved in pH 7.4 D-PBS buffer (1 mg/mL). The samples were prepared by adding 10 equiv of P1, P2, and P3 or 750 equiv of trehalose into the insulin solution. […] Other samples with polymers or trehalose were heated as 90° C. for 1 h and ran through the native gel.

[5] = system: β-galactosidase (β-Gal); conditions: lyophilization cycles; β-Gal 0.1 mg/mL; 7500 equiv of trehalose
[6] = system: horseradish peroxidase (HRP); test: Horseradish peroxidase stabilization at 70° C. (TMB activity); type: biochemical; conditions: 70° C. for 30 min; HRP 75 μg/mL; 7500 equivalent of trehalose
Experimental: The activity of horseradish peroxidase (HRP) after exposure to a temperature of 70° C. for 30 minutes was tested, and the results are provided in FIG. 28. The activity of HRP was tested through reaction with 3,3′,5,5′-tetramethylbenzidine (TMB), which produces a blue by-product. HRP samples were prepared without any additive, with 100 equivalent of P1-P4, or 7500 equivalent of trehalose, which is equal to the trehalose in the P1 sample. Heated samples were then tested for HRP reactivity and the percent original activities were calculated using same concentration of HRP without heating and additive (FIG. 28). After heating, HRP in solution without any additive, only 46% of the original activity was observed. […] The same concentration of trehalose maintained only 80% of HRP activity. All samples were repeated six times and their p value compared with no additive were <0.001.
Horseradish Peroxidase Stabilized by P1-P4 at 70° C. […] Stock solutions of 100 equiv of P1, P2, P3 and P4 and 7500 equiv of trehalose were also prepared in the same buffer. 2 μL aliquots of HRP solution were mixed with 2 μL aliquots of each polymer and trehalose solution to give final concentration of 75 μg/mL HRP or with only buffer. […] The assay was repeated 6 times following the know procedure with tetramethylbenzemidine (TMB).

Row | activity relative to unexposed sample stored at 4° C. ([1]; 0.1 mg/mL, DPBS pH 7.4, conjugate or protein alone, no additive) | retention of original activity ([1]; lysozyme 0.021 mg/mL (1 kU/mL), conjugate or protein alone) | Compound | retention of lysozyme activity with added trehalose ([1]; trehalose at equivalent concentrations to that in the 100-fold polymers) | percent original GOX activity [2] | activity retention with added trehalose ([3]; 90° C. for 1 hour, highest trehalose concentration (100 eq Poly8 monomer units)) | insulin band on native gel after heating [4] | β-Gal original activity maintained [5] | percent original HRP activity [6] | remaining activity after heat burden ([3]; 90° C. for 3 hours, 0.1 mg/mL, conjugate or protein alone)
1 |  |  | OC[C@H]1O[C@H](O[C@H]2O[C@H](CO)[C@@H](O)[C@H](O)[C@H]2O)[C@H](O)[C@@H](O)[C@@H]1O [trehalose] | 18-31% | 72% | 31% | greatly reduced | 45% | 80% | 
2 | ~20% | 16% | wild-type lysozyme: hen egg white lysozyme reconstituted as received, unmodified |  |  |  |  |  |  | no activity remained
